Assays:
PC3 = test: MTT assay, antiproliferative activity against PC3 cells; format: cell-based; conditions: Homo sapiens, PC-3, 72 h, mean of at least two determinations
Text: (§1) All synthesized target compounds were firstly tested for their antiproliferative activity against five human cancer cell lines, PC3, A549, HCT116, HL60, and KB, using MTT assay.
(§2) Human prostate cancer PC3 cells, lung adenocarcinoma epithelial A549 cells, colon cancer HCT116 cells, promyelocytic leukemia HL60 cells and nasopharyngeal carcinoma KB cells were obtained from the cell bank of the Institute of Biochemistry and Cell Biology, Chinese Academy of Sciences (Shanghai, China). The inhibitory activity of target compounds against tested cancer cell lines was measured using the MTT assay. PC3, A549, HCT116, HL60, and KB cancer cell lines were cultured in RPMI-1640 medium (Invitrogen, Carlsbad, CA, USA) with heat-inactivated 10% fetal bovine serum, penicillin (100 units/mL) and streptomycin (100 µg/mL) and incubated in an atmosphere with 20% oxygen and 5% carbon dioxide at 37°C. All tested compounds were dissolved in DMSO at concentrations of 10.0 mg/mL and diluted to appropriate concentrations. Cells were plated in 96-well plates for 24 h and subsequently treated with different concentrations of all tested compounds for 72 h. Viable cells were determined using 3-(4,5-dimethylthiazol-2-yl)-2,5-diphenyltetrazolium bromide assay kit (MTT, Sigma) according to operation instructions provided by the manufacturer. The concentration of drug causing 50% inhibition in absorbance compared with control cells (IC50) was calculated using the software of dose-effect analysis with microcomputers.

A549 = test: MTT assay, antiproliferative activity against A549 cells; format: cell-based; conditions: Homo sapiens, 72 h, mean of at least two determinations
Text: as §1, §2

HCT116 = test: MTT assay, antiproliferative activity against HCT116 cells; format: cell-based; conditions: Homo sapiens, HCT-116, 72 h, mean of at least two determinations
Text: as §1, §2

HL60 = test: MTT assay, antiproliferative activity against HL60 cells; format: cell-based; conditions: Homo sapiens, HL-60, 72 h, mean of at least two determinations
Text: as §1, §2

KB = test: MTT assay, antiproliferative activity against KB cells; format: cell-based; conditions: Homo sapiens, 72 h, mean of at least two determinations
Text: as §1, §2

recombinant human PI3Kα = molecular target: T1, recombinant human PI3Kα (Homo sapiens, UniProt P42336); test: Competitive fluorescence polarization (FP) assay, inhibition of PI3Kα; format: biochemical; conditions: for Binding efficiency index (BEI): BEI = pIC50 (M)/MW (kDa), PI3Kα
T1 construct: purchased Echelon Biosciences (Salt Lake City, UT, USA) E-2000
T1 sequence (P42336 whole entry): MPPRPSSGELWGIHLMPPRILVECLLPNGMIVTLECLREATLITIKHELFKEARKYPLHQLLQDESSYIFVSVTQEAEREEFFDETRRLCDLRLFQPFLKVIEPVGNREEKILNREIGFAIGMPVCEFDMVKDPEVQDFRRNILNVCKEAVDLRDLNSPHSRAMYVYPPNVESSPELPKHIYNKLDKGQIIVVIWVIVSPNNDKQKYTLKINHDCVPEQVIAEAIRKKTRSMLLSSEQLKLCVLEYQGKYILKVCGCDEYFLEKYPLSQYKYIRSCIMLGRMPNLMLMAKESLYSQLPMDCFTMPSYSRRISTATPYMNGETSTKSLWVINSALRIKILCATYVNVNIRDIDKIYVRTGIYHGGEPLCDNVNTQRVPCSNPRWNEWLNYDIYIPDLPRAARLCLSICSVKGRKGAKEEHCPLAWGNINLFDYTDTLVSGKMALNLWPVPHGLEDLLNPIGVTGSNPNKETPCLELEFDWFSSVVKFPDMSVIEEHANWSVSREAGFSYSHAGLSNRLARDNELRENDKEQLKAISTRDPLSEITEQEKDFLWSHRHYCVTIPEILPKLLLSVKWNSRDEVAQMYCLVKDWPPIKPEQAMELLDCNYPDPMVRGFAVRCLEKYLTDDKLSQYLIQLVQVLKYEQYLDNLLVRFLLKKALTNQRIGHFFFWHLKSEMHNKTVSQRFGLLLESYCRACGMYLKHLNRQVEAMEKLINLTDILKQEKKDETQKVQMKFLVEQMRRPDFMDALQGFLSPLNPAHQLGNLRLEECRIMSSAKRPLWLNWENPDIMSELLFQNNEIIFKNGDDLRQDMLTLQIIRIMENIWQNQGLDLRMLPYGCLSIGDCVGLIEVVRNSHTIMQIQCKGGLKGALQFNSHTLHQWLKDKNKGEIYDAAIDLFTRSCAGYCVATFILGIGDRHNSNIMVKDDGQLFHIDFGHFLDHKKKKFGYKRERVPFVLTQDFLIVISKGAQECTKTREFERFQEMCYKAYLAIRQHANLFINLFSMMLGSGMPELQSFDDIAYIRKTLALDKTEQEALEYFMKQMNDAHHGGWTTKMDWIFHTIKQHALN
T1 sequence (P27986 whole entry partner): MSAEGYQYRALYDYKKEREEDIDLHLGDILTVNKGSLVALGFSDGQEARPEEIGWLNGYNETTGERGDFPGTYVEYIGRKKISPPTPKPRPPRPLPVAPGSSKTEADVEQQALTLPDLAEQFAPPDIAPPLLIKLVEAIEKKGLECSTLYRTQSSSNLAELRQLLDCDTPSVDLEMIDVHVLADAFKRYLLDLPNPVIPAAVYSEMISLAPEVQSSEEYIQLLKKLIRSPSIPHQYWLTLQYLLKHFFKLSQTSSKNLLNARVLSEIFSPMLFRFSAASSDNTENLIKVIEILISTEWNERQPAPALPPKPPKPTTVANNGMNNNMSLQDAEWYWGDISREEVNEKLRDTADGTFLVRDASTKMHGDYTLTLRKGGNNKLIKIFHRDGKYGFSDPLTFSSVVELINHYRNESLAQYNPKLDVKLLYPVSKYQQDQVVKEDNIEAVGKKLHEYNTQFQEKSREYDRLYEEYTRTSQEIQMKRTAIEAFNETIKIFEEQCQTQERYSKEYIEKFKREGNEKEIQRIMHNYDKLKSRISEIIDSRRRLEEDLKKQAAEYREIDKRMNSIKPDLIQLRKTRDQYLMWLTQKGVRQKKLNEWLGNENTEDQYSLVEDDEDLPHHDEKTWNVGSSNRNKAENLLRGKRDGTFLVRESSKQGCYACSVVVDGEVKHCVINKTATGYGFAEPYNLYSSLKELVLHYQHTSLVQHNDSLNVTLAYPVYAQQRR
Description: Selected compounds were then tested for their enzymatic inhibitory activity against PI3Kα using a competitive fluorescence polarization (FP) assay to determine the molecular target of synthesized compounds [21].
The PI3Kα inhibitory test was determined using a competitive fluorescence polarization kinase activity assay. PI3K fluorescence polarization assay kit (catalog No. K-1100) and recombinant human PI3Kα (catalog No. E-2000) were purchased from Echelon Biosciences (Salt Lake City, UT, USA). PI3K reactions were performed in 5 mM HEPES, Ph 7, 2.5 mM MgCl2, 10 mM DTT and 50 µM ATP, using diC8-phosphatidylinositol-4, 5-bisphosphate (PIP2) as the substrate, and the final reaction volumes were 10 µL. For evaluation of the PI3Kα inhibitory activity of target compounds, 50 ng enzyme and 10 µM substate were used per 10 µL reaction volume with the concentrations of inhibitors ranging from 3.2 nM to 10 µM. After incubating for 3 h at room temperature, reactions were quenched by adding chelators. A mixture of phosphoinositide binding protein was added and mixed, followed by the addition of a fluorophore-labeled phosphoinositide tracer. Samples were then mixed in 384-well black Corning nonbinding plates (Corning, NY, USA) and incubated in a dark environment for 1 h to equilibrate. Finally, polarization values were measure using red fluorophores with appropriate filters to determine the extent of enzyme activity in the reaction.

PC3 cells [1] = test: Apoptosis assay in PC3 cells by flow cytometry (PI); format: cell-based, human; conditions: 24 h, control 1.71%
Description: Piperazinylquinoxaline derivative 41 was further tested for its ability to induce apoptosis in PC3 cells. […] (Fig. 5). With an apoptotic percent of 1.71% of the control, the percent of apoptotic PC3 cells induced by compound 41 and GDC0941 in 5 µM after treatment of 24 h were 4.48% and 3.12%, respectively.
Figure 5 Apoptosis induction of compound 41 and GDC0941 in PC3 cells. After treatment with 41 and GDC0941 (5 or 10 µM) for 24 h, PC3 cells were harvested and detected of apoptosis by flow cytometry using PI apoptosis detection kit. Vertical axes stand for the counts of relative number of PC3 cells; horizontal axes stand for the relative fluorescence light intensity measured as pulse-area (FL2-A). TEXT PRINTED IN THE PICTURE: Compound 41: Apo:4.48% (5μM); Apo:32.83% (10μM) | GDC0941: Apo:3.12% (5μM); Apo:5.65% (10μM)
(§3) For flow cytometry analysis, PC3 cells were treated with DMSO, compound 41 and GDC0941 for 24 h. Cells were washed twice with PBS and fixed in 75% ethanol at −20°C. The cell pellet was resuspended in 100 µL of PBS containing […] RNase (Amerson, Solon, OH, USA), then incubated at 37°C for 0.5 h. After incubation, the cells were stained with 20 mL/L propidium iodide (PI, Sigma, St. Louis, MO, USA) at 4°C for 15 min. The fluorescence of cell was measured with FACSCalibur flow cytometer (Becton-Dickinson, Lincoln Park, NJ, USA).

PC3 cells [2] = test: Cell cycle arrest in PC3 cells by flow cytometry; format: cell-based, human; conditions: 24 h
Description: Moreover, flow cytometric analysis was performed to determine whether target compounds could induce cell cycle arrest in PC3 cells. GDC0941 was used as the positive control. PC3 cells were treated with compound 41 and GDC0941 in two different concentrations (2 and 4 µM) for 24 h, the results are presented as Figure 6.
Figure 6 Cell cycle arrest test of compound 41 and GDC0941 in PC3 cells. Vertical axes stand for the counts of relative number of PC3 cells; horizontal axes stand for the relative fluorescence light intensity measured as pulse-area (FL2-A). TEXT PRINTED IN THE PICTURE: Compound 41: G1: 53.77 % (2μM); G2: 16.76 % (2μM); S: 29.48 % (2μM); G1: 54.38 % (4μM); G2: 15.87 % (4μM); S: 29.75 % (4μM) | GDC0941: G1: 63.66 % (2μM); G2: 21.86 % (2μM); S: 14.48 % (2μM); G1: 71.43 % (4μM); G2: 19.92 % (4μM); S: 8.65 % (4μM)
as §3

[3] = FP assay, 50 µM ATP, mean of at least two determinations

Compound	IC50 (PC3) [µM]	IC50 (A549) [µM]	IC50 (HCT116) [µM]	IC50 (HL60) [µM]	IC50 (KB) [µM]	Binding efficiency index (BEI) (recombinant human PI3Kα)	IC50 (recombinant human PI3Kα; [3]) [µM]	melting point [°C]	IC50 (recombinant human PI3Kα; as used for BEI, Table 5) [µM]	percent of apoptotic PC3 cells (PC3 cells [1]; 5 µM) [%]	percent of apoptotic PC3 cells (PC3 cells [1]; 10 µM) [%]	percent of cells in G1 (PC3 cells [2]; 2 µM) [%]	percent of cells in G2 (PC3 cells [2]; 2 µM) [%]	percent of cells in S (PC3 cells [2]; 2 µM) [%]	percent of cells in G1 (PC3 cells [2]; 4 µM) [%]	percent of cells in G2 (PC3 cells [2]; 4 µM) [%]	percent of cells in S (PC3 cells [2]; 4 µM) [%]	cell cycle arrest (PC3 cells [2]; 2 and 4 µM)
NC(=O)C1CCN(c2nc3ccccc3nc2S(=O)(=O)c2ccccc2)CC1 [Compound 4, 2-(4-Carbamoylpiperidin-1-yl)-3-(phenylsulfonyl)Fquinoxaline]	1.2	26.7	1.57	0.22	13.7		> 10	170 to 174										
CS(=O)(=O)N1CCN(Cc2cc3nc(-c4cccc5[nH]ncc45)nc(N4CCOCC4)c3s2)CC1 [GDC0941, 2-(1H-Indazol-4-yl)-6-(4-methanesulfonyl-piperazin-1-ylmethyl)-4-morpholin-4-yl-thieno[3,2-d]pyrimidine, reference compound]										3.12	5.65	63.66	21.86	14.48	71.43	19.92	8.65	induced cell cycle arrest in G1 phase
CC(=O)N1CCN(c2nc3ccccc3nc2S(=O)(=O)c2ccccc2)CC1 [Compound 9, 2-(4-Acetylpiperazin-1-yl)-3-(phenylsulfonyl)quinoxaline]	2.25	1.02	1.84	2.43	4.42	15.1	1.09	144 to 146										

Second part, led by results:

IC50 (PC3) [µM]	IC50 (A549) [µM]	IC50 (HCT116) [µM]	IC50 (HL60) [µM]	IC50 (KB) [µM]	Binding efficiency index (BEI) (recombinant human PI3Kα)	IC50 (recombinant human PI3Kα; [3]) [µM]	melting point [°C]	IC50 (recombinant human PI3Kα; as used for BEI, Table 5) [µM]	Compound	percent of apoptotic PC3 cells (PC3 cells [1]; 5 µM) [%]	percent of apoptotic PC3 cells (PC3 cells [1]; 10 µM) [%]	percent of cells in G1 (PC3 cells [2]; 2 µM) [%]	percent of cells in G2 (PC3 cells [2]; 2 µM) [%]	percent of cells in S (PC3 cells [2]; 2 µM) [%]	percent of cells in G1 (PC3 cells [2]; 4 µM) [%]	percent of cells in G2 (PC3 cells [2]; 4 µM) [%]	percent of cells in S (PC3 cells [2]; 4 µM) [%]	cell cycle arrest (PC3 cells [2]; 2 and 4 µM)
1.01	5.18	2.31	0.28	0.87	12.0	4.25	141 to 142		CN1CCN(c2nc3ccccc3nc2S(=O)(=O)c2ccc(Br)cc2)CC1 [Compound 17, 2-(4-Methylpiperazin-1-yl)-3-(4-bromophenylsulfonyl)quinoxaline]									
0.93	1.65	0.54	0.16	8.53	16.6	0.24	130 to 133	0.24	COc1ccc(S(=O)(=O)c2nc3ccccc3nc2N2CCNC(C)C2)cc1 (stereo not shown) [Compound 26, 2-(3-Methylpiperazin-1-yl)-3-(4-methoxyphenylsulfonyl)quinoxaline]									
0.36	0.75	0.19	0.1	9.89	17.0	0.04	92 to 96		O=S(=O)(c1ccc(Br)cc1)c1nc2ccccc2nc1N1CCNCC1 [Compound 22, 2-(Piperazin-1-yl)-3-(4-bromophenylsulfonyl)quinoxaline]									

— paper PMC3419191, “Identification of Novel Piperazinylquinoxaline Derivatives as Potent Phosphoinositide 3-Kinase (PI3K) Inhibitors” (PLoS ONE, 2012)
